Active and inactive are the calls of the source. The calls are words filed in the database; no cut-off is given here.
Experiments:
[1] = target: 3',5'-cyclic-AMP phosphodiesterase 4B (Homo sapiens, UniProt Q07343); experiment: Inhibition of core catalytic domains PDE4B (unknown origin)
[2] = target: T1, cGMP-inhibited 3',5'-cyclic phosphodiesterase 3A (Homo sapiens, UniProt Q14432); experiment: Inhibition of core catalytic domains PDE3A (unknown origin) at 100 uM
Rattus norvegicus [3] = experiment: Antiinflammatory activity in LPS-stimulated rat assessed as total number of leukocytes in bronchoalveolar lavage fluid at 3 mg/kg, po administered 1 hr before LPS challenge measured after 3 hrs; assay type: functional, Lung
Rattus norvegicus [4] = experiment: Antiinflammatory activity in LPS-stimulated rat assessed as total number of leukocytes in bronchoalveolar lavage fluid at 10 mg/kg, po administered 1 hr before LPS challenge measured after 3 hrs; assay type: functional, Lung
Rattus norvegicus [5] = experiment: Antiinflammatory activity in LPS-stimulated rat assessed as total number of leukocytes in bronchoalveolar lavage fluid at 1 mg/kg, po administered 1 hr before LPS challenge measured after 3 hrs; assay type: functional, Lung
[6] = target: T1, cGMP-inhibited 3',5'-cyclic phosphodiesterase 3A; experiment: Inhibition of core catalytic domains PDE3A (unknown origin)

Chain of 3',5'-cyclic-AMP phosphodiesterase 4B (Q07343 whole entry, the tested form may be a part): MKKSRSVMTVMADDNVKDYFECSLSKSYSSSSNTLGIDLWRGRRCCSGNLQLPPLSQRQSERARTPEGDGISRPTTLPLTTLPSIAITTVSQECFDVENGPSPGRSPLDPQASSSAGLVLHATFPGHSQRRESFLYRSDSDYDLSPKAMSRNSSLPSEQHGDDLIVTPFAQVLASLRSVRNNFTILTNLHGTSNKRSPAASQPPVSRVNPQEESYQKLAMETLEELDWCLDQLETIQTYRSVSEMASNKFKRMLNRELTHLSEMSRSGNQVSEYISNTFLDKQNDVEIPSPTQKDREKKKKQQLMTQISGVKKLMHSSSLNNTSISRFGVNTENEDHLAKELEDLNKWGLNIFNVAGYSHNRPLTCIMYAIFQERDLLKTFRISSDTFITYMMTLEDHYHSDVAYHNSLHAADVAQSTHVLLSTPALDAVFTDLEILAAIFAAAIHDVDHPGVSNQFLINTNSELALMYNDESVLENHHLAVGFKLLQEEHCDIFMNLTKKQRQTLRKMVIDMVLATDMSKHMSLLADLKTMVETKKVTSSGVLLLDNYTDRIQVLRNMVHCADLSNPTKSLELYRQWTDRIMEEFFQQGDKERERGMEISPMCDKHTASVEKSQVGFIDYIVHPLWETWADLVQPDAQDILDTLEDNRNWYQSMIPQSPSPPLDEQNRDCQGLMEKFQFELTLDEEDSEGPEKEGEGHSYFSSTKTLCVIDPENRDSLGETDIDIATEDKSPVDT
T1 sequence (Q14432 whole entry, the tested form may be a part): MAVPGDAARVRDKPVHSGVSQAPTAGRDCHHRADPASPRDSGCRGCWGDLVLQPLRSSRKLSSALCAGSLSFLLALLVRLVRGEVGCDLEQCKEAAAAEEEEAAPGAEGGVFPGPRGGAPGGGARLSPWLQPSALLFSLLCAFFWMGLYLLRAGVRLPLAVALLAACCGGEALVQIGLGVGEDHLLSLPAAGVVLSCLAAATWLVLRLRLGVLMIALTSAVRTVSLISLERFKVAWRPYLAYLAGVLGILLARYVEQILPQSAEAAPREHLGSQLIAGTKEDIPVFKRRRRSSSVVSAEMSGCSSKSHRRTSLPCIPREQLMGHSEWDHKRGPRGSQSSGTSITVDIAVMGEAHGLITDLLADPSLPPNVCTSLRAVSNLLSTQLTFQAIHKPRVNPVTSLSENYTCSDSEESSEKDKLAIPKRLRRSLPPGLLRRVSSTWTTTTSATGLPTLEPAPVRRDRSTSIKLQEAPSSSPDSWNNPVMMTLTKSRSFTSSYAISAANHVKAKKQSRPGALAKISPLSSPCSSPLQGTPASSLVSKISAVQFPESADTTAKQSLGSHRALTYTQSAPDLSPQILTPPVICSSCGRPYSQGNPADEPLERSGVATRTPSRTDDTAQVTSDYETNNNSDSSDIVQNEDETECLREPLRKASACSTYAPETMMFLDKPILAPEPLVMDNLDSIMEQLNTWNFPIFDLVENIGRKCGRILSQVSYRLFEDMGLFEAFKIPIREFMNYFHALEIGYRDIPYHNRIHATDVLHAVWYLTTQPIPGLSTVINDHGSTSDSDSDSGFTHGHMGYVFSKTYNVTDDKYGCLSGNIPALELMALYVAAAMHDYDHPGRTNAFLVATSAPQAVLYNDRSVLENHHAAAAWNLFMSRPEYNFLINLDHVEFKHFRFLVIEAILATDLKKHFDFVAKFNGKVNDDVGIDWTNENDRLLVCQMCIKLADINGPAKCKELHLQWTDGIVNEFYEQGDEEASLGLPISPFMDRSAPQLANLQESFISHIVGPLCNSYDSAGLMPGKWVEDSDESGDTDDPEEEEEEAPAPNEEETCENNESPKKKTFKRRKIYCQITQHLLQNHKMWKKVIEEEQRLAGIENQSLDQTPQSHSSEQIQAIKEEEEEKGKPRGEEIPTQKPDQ

Structure (SMILES) | IC50 [1] [nM] | inhibition [2] | IC50 [6] [nM] | Activity (Rattus norvegicus [3]) [%] | Activity (Rattus norvegicus [4]) [%] | Activity (Rattus norvegicus [5]) [%]
COc1ccc(C(=O)c2ccncc2)c2cc(C(F)(F)F)nn12 | 980 | inactive |  |  |  | 
COc1ccc(NC(=O)c2c(Cl)cncc2Cl)c2cc(C(F)(F)F)nn12 | 240 | inactive |  |  |  | 
COc1ccc(CNc2c(Cl)cncc2Cl)c2cc(C(F)(F)F)nn12 | 150 |  | 71400 |  |  | 
COc1ccc(C(=O)Nc2c(Cl)cncc2Cl)c2ccnn12 | 39 |  | > 100000 | 0 |  | 
COc1ccc(C(O)c2ccncc2)c2cc(C(F)(F)F)nn12 (centres undefined) | 10200 | inactive |  |  |  | 
COc1ccc(C(O)Cc2c(Cl)cncc2Cl)c2cc(C(F)(F)F)nn12 (centres undefined) | 39 | inactive |  |  |  | 
COc1ccc(Cc2ccncc2)c2cc(C(F)(F)F)nn12 | 570 |  | > 100000 |  |  | 
COc1ccc(C(=O)Nc2c(Cl)cncc2Cl)c2cc(C(C)C)nn12 | 110 | inactive |  | 64 |  | 
COCc1cc2c(C(=O)Nc3c(Cl)c[n+]([O-])cc3Cl)ccc(OC)n2n1 | 50 | inactive |  | 18 |  | 
COc1ccc(C2=NNC(=O)CC2C)c2cc(C(F)(F)F)nn12 (single isomer, unassigned; (-)) |  |  |  |  |  | 79
COc1ccc(C(O)Cc2ccncc2)c2cc(C(F)(F)F)nn12 (centres undefined) | 750 | inactive |  |  |  | 
CC(=O)c1ccc(C(=O)Nc2c(Cl)cncc2Cl)c2cc(C(F)(F)F)nn12 | 21 | inactive |  | 43 |  | 
COc1ccc(C(=O)C(=O)c2ccncc2)c2cc(C(F)(F)F)nn12 | 1260 | inactive |  |  |  | 
O=C(Nc1c(Cl)cncc1Cl)c1ccc(CO)n2nc(C(F)(F)F)cc12 | 31 | inactive |  | 26 |  | 
COc1ccc(C(=O)Nc2c(Cl)c[n+]([O-])cc2Cl)c2cc(C#N)nn12 | 22 | inactive |  | 61 |  | 
COc1cccc2c(C(=O)Nc3c(Cl)cncc3Cl)c(C(F)(F)F)nn12 | 6130 | inactive |  |  |  | 
COc1ccc(C(=O)Nc2c(Cl)cncc2Cl)c2cc(C(C)O)nn12 (centres undefined) | 83 | inactive |  | 60 |  | 
O=C(Nc1c(Cl)cncc1Cl)c1ccc(OC(F)F)c(OCC2CC2)c1 [ROFLUMILAST] |  |  | > 100000 |  | 59 | 
COc1ccc(/C=C/c2ccncc2)c2cc(C(F)(F)F)nn12 | 15 |  | 67100 | 57 |  | 
COc1ccc(C(=O)Nc2c(Cl)cncc2Cl)c2cc(C(=O)O)nn12 | 550 | inactive |  |  |  | 
COc1cccc2c(C(=O)Nc3c(Cl)c[n+]([O-])cc3Cl)c(C(F)(F)F)nn12 | 16600 | inactive |  |  |  | 

The next lines start with results.

IC50 [1] [nM] | inhibition [2] | IC50 [6] [nM] | Structure (SMILES) | Activity (Rattus norvegicus [3]) [%] | Activity (Rattus norvegicus [4]) [%] | Activity (Rattus norvegicus [5]) [%]
9.4 | inactive |  | CCc1cc2c(C(=O)Nc3c(Cl)c[n+]([O-])cc3Cl)ccc(OC)n2n1 | 40 |  | 
2.9 | inactive |  | COc1ccc(C(=O)Cc2c(Cl)cncc2Cl)c2cc(C(F)(F)F)nn12 |  | 87 | 
4.5 | inactive |  | COCc1ccc(C(=O)Nc2c(Cl)cncc2Cl)c2cc(C(F)(F)F)nn12 | 31 |  | 
2.8 | inactive |  | COc1ccc(C(=O)Nc2c(Cl)c[n+]([O-])cc2Cl)c2cc(C3CC3)nn12 |  |  | 62
4.1 |  | > 100000 | COc1ccc(C(=O)Nc2c(Cl)cncc2Cl)c2cc(C#N)nn12 | 66 |  | 
13 | inactive |  | COCc1cc2c(C(=O)Nc3c(Cl)cncc3Cl)ccc(OC)n2n1 |  |  | 54
2.9 |  | > 100000 | COc1ccc(C(=O)Nc2c(Cl)cncc2Cl)c2cc(C(C)=O)nn12 | 41 |  | 
8 |  | > 100000 | CC(O)c1ccc(C(=O)Nc2c(Cl)cncc2Cl)c2cc(C(F)(F)F)nn12 (centres undefined) | 59 |  | 
7 |  | > 100000 | CCc1cc2c(C(=O)Nc3c(Cl)cncc3Cl)ccc(OC)n2n1 | 53 |  | 
5.5 | inactive |  | COc1ccc(/C=C/c2c(Cl)cncc2Cl)c2cc(C(F)(F)F)nn12 | 39 |  | 
5.1 |  | > 100000 | COc1ccc(C(=O)Nc2c(Cl)cncc2Cl)c2cc(/C=N/O)nn12 | 41 |  | 
0.27 | inactive |  | COc1ccc(C(=O)Nc2c(Cl)cncc2Cl)c2cc(C(F)(F)F)nn12 |  |  | 60
2.7 | inactive |  | COc1ccc(C(=O)Nc2c(Cl)c[n+]([O-])cc2Cl)c2ccnn12 | 57 |  | 
9.4 | inactive |  | COc1ccc(C(=O)Cc2ccncc2)c2cc(C(F)(F)F)nn12 |  |  | 
9.8 | inactive |  | COc1ccc(C(=O)Nc2c(Cl)cncc2Cl)c2cc(C=O)nn12 | 64 |  | 
0.51 |  | > 100000 | COc1ccc(C(=O)Nc2c(Cl)cncc2Cl)c2cc(C3CC3)nn12 | 71 |  | 
0.19 | inactive |  | CNc1ccc(C(=O)Nc2c(Cl)cncc2Cl)c2cc(C(F)(F)F)nn12 | 33 |  | 
4.9 | inactive |  | COc1ccc(CCc2ccncc2)c2cc(C(F)(F)F)nn12 | 55 |  | 
0.11 |  | > 100000 | CSc1ccc(C(=O)Nc2c(Cl)cncc2Cl)c2cc(C(F)(F)F)nn12 | 52 |  | 
1.5 | inactive |  | COc1ccc(C(=O)Nc2c(Cl)c[n+]([O-])cc2Cl)c2cc(C(F)(F)F)nn12 | 77 |  | 
10 | inactive |  | COc1ccc(C(=O)Nc2c(Cl)c[n+]([O-])cc2Cl)c2cc(C(C)C)nn12 |  | 63 | 
0.2 | inactive |  | COc1ccc(C(=O)Nc2c(Cl)cncc2Cl)c2cc(C(F)F)nn12 | 32 |  | 
